Values quoted from earlier work as cited in patent publication US20230321114A1, “METHODS OF TREATING AGE-RELATED COGNITIVE DECLINE” (Woolsey Pharmaceuticals, Inc., priority 2020, published 2023).

Columns and labels:
[1] = system: memory in aging rats; details: eighteen-month old rats, 0.1875 or 0.3750 mg per day, single daily injection
[2] = in vivo, metabolite

SMILES: O=S(=O)(c1cccc2c(O)nccc12)N1CCCNCC1 [hydroxyfasudil]
- spatial reference memory ([1]; Morris Water Maze): not in spatial reference memory
- working memory ([1]; Morris Water Maze (radial maze)): improvements in working memory
- half-life [2]: about 8 hours
